In paper PMC9428149, “Tackling recalcitrant Pseudomonas aeruginosa infections in critical illness via anti-virulence monotherapy” (Nature Communications, 2022):

Legend:
[1] = system: pqsA promoter (PA14 PpqsA-GFPASV); assay: pqsA-GFP reporter expression; format: cell-based, Pseudomonas aeruginosa; details: PA14 PpqsA-GFPASV; 50µM per b210 (method b76 says 10 µM)
Protocol: The expression levels of pqsA, which is representative of the pqsABCDE operon transcription, were monitored in the presence of the MvfR inhibitors using PA14 cells containing the PpqsA-GFPASV, a reporter construct of the pqsA promoter fused to a short half-life GFP gene in, such that quantitative quenching of fluorescence corresponds to pqsA promoter repression[22],[32],[48]. […] GFP fluorescence levels were measured at λex = 485 nm/λem = 535 nm after 10 seconds of shaking every 15 min up to 12 h. The IC50 of PpqsA-GFP expression levels was performed as above using the same 13 different concentrations (0.0122–50 μM) for each of the 13 compounds tested.

[2] = system: pyocyanin production in PA14; assay: Pyocyanin production assay; details: PA14; 50µM of each inhibitor (method says 10 μM); vs vehicle

Row | Structure (SMILES) | % Production pqsA-GFP [1] | % Production Pyocyanin [2]
1 | COc1cccc(NC(=O)CNc2ccc(F)cc2C)c1 [D32] | 94% | 92%
2 | Cc1cc(F)ccc1NCC(=O)Nc1ccc(Br)cc1C [D7] | 70% | 89%
3 | Cc1cc(F)ccc1NCC(=O)Nc1cccc([N+](=O)[O-])c1 [D14] | 77% | 85%
4 | Cc1cc(F)ccc1NCC(=O)Nc1cc(F)ccc1F [D10] | 89% | 90%
5 | N#Cc1ccc(NC(=O)C(F)C(=O)Nc2ccc(C#N)cc2)cc1 [D96] | 42% | 34%
6 | CC(=O)c1ccccc1NC(=O)CNc1ccc(F)cc1C [D30] | 94% | 91%
7 | Cc1cc(F)ccc1NCC(=O)Nc1ccc(N2CCOCC2)cc1 [D5] | 100% | 102%
8 | N#Cc1ccc(NC(=O)CC(O)Cc2ccc(F)cc2)cc1 (stereo not shown) [D89] | – | 95%
9 | N#Cc1ccc(NC(=O)CC(=O)Nc2ccc(Oc3ccccc3)cc2)c(N)c1 [D92] | 1% | 4%
10 | N#Cc1ccc(NC(=O)C(F)(F)C(=O)Nc2ccc(C#N)cc2)cc1 [D97] | 95% | 94%
11 | N#Cc1ccc(NC(=O)CC(=O)Nc2cccc(F)c2)cc1 [D72] | – | 30%
12 | Cc1cc(F)ccc1NCC(=O)Nc1cccc(C#N)c1 [D13] | 90% | 100%
13 | Cc1cc(NC(=O)CNc2ccc(F)cc2C)ccc1Br [D31] | 47% | 69%
14 | N#Cc1ccc(NC(=O)CC(=O)c2ccc(F)cc2)cc1 [D76] | – | 77%
15 | Cc1cc(F)ccc1NCC(=O)Nc1ccc(N2CCCC2=O)cc1 [D9] | 105% | 107%
16 | N#Cc1ccc(NC(=O)C=CC(=O)Nc2ccc(F)cc2)cc1 [D86] | – | 88%

Row | Structure (SMILES) | % Production pqsA-GFP [1] | % Production Pyocyanin [2]
17 | Cc1cc(F)ccc1NCC(=O)Nc1ccccc1Br [D2] | 96% | 101%
18 | Cc1cc(F)ccc1NCC(=O)Nc1cccc(Cl)c1 [D22] | 71% | 96%
19 | CC(C)c1ccc(NCC(=O)Nc2ccc(C#N)cc2)cc1 [D33] | 53% | 59%
20 | N#Cc1ccc(NC(=O)CC(=O)Nc2ccc(C#N)nc2)cn1 [D91] | 39% | 43%
21 | Cc1ccc(NC(=O)CNc2ccc(F)cc2C)c(C)c1 [D21] | 87% | 113%
22 | Cc1ccc(F)cc1NCC(=O)Nc1ccc(C#N)cc1 [D18] | 28% | 69%
23 | O=C(CC(=O)Nc1ccc(C(F)(F)F)cc1)Nc1ccc(Oc2ccccc2)cc1 [D98] | 29% | 42%
24 | N#Cc1ccc(NC(=O)CC(=O)Nc2cccc(C#N)c2)cc1 [D75] | – | 49%
25 | N#Cc1ccc(NC(=O)CNc2ccccc2F)cc1 [D25] | 84% | 97%
26 | Cc1cc(F)ccc1NCC(=O)Nc1ccc(C(=O)N(C)C)cc1 [D19] | 100% | 109%
27 | N#Cc1ccc(/C=C/C(=O)Nc2ccc(C#N)cc2)cc1 [D83] | – | 114%
28 | Cc1ccc(NC(=O)CNc2ccc(F)cc2C)c(Br)c1 [D12] | 92% | 108%
29 | Cc1ccc(NCC(=O)Nc2ccc(C#N)cc2)cc1F [D28] | 42% | 60%
30 | Nc1cc([N+](=O)[O-])ccc1NC(=O)CC(=O)Nc1ccc(Oc2ccccc2)cc1 [D60] | – | 6%
31 | N#Cc1ccc(NC(=O)CC(=O)Cc2ccc(F)cc2)cc1 [D84] | – | 102%
32 | N#Cc1ccc(NC(=O)CC(=O)Nc2ccc(C#N)cn2)cc1 [D78] | – | 14%
